Experimental data taken from PubChem BioAssay AID1963844 (Molecular Pharmacology Branch, DTP, NCI, 2024).

System: 422866-222-R5-J1-PDC complex spheroid viability
Assay: Anticancer human tumor 422866-222-R5-J1-PDC patient-derived pancreatic adenocarcinoma cell line growth inhibition [POLQ]
Conditions: for IC50: curve of first compound; for viability, T/C: stronger effect = lower value
Summary of the method: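 Patient-derived tumour cells were co-cultured with HUVEC and mesenchymal stem cells as multicellular spheroids at 37 °C. They were treated with POLQ inhibitors (novobiocin, ART-558, RP6685) alone or combined with other agents. Top concentrations were at or near clinical Cmax (otherwise 10 microM; SN-38 at 1 microM), decreasing in half-log steps.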

[1] = second compound 0.0316 µM, first compound 0.0316 µM
[2] = second compound 0.0316 µM, first compound 0.1 µM
[3] = second compound 0.0316 µM, first compound 0.316 µM
[4] = second compound 0.0316 µM, first compound 1 µM
[5] = second compound 0.0316 µM, first compound 3.16 µM
[6] = second compound 0.0316 µM, first compound 10 µM
[7] = second compound 0.1 µM, first compound 0.0316 µM
[8] = second compound 0.1 µM, first compound 0.1 µM
[9] = second compound 0.1 µM, first compound 0.316 µM
[10] = second compound 0.1 µM, first compound 1 µM
[11] = second compound 0.1 µM, first compound 3.16 µM
[12] = second compound 0.1 µM, first compound 10 µM
[13] = second compound 0.316 µM, first compound 0.0316 µM
[14] = second compound 0.316 µM, first compound 0.1 µM
[15] = second compound 0.316 µM, first compound 0.316 µM
[16] = second compound 0.316 µM, first compound 1 µM
[17] = second compound 0.316 µM, first compound 3.16 µM
[18] = second compound 0.316 µM, first compound 10 µM
[19] = second compound 1 µM, first compound 0.0316 µM
[20] = second compound 1 µM, first compound 0.1 µM
[21] = second compound 1 µM, first compound 0.316 µM
[22] = second compound 1 µM, first compound 1 µM
[23] = second compound 1 µM, first compound 3.16 µM
[24] = second compound 1 µM, first compound 10 µM
[25] = second compound 3.16 µM, first compound 0.0316 µM
[26] = second compound 3.16 µM, first compound 0.1 µM
[27] = second compound 3.16 µM, first compound 0.316 µM
[28] = second compound 3.16 µM, first compound 1 µM
[29] = second compound 3.16 µM, first compound 3.16 µM
[30] = second compound 3.16 µM, first compound 10 µM
[31] = second compound 10 µM, first compound 0.0316 µM
[32] = second compound 10 µM, first compound 0.1 µM
[33] = second compound 10 µM, first compound 0.316 µM
[34] = second compound 10 µM, first compound 1 µM
[35] = second compound 10 µM, first compound 3.16 µM
[36] = second compound 10 µM, first compound 10 µM
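Note: spheroids exposed to compounds for one week before readout.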
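Throughout, for viability, T/C: percent of DMSO vehicle wells luminescence so 100% = untreated viability.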

CNCc1ccc(-c2[nH]c3cc(F)cc4c3c2CCNC4=O)cc1 + COC1C(OC(N)=O)C(O)C(Oc2ccc3c(O)c(NC(=O)c4ccc(O)c(CC=C(C)C)c4)c(=O)oc3c2C)OC1(C)C
IC50 (second compound 0.0316 µM): > 10 µM
IC50 (second compound 0.1 µM): > 10 µM
IC50 (second compound 0.316 µM): > 10 µM
IC50 (second compound 1 µM): > 10 µM
IC50 (second compound 3.16 µM): > 10 µM
IC50 (second compound 10 µM): > 10 µM
viability, T/C [1]: 96.6%
viability, T/C [2]: 97.2%
viability, T/C [3]: 75.3%
viability, T/C [4]: 97.3%
viability, T/C [5]: 83.4%
viability, T/C [6]: 105%
viability, T/C [7]: 124%
viability, T/C [8]: 109%
viability, T/C [9]: 104%
viability, T/C [10]: 99.1%
viability, T/C [11]: 76.7%
viability, T/C [12]: 95%
viability, T/C [13]: 99.5%
viability, T/C [14]: 101%
viability, T/C [15]: 98.2%
viability, T/C [16]: 83%
viability, T/C [17]: 92%
viability, T/C [18]: 95.1%
viability, T/C [19]: 116%
viability, T/C [20]: 104%
viability, T/C [21]: 101%
viability, T/C [22]: 92.9%
viability, T/C [23]: 96.8%
viability, T/C [24]: 99%
viability, T/C [25]: 93%
viability, T/C [26]: 101%
viability, T/C [27]: 92.9%
viability, T/C [28]: 71.7%
viability, T/C [29]: 83.5%
viability, T/C [30]: 99%
viability, T/C [31]: 96.8%
viability, T/C [32]: 102%
viability, T/C [33]: 100%
viability, T/C [34]: 90%
viability, T/C [35]: 103%
viability, T/C [36]: 90.2%

O=C(c1cc(Cc2n[nH]c(=O)c3ccccc23)ccc1F)N1CCN(C(=O)C2CC2)CC1 + Cc1cccc(N(C)C(=O)C2C(O)CCN2c2nc(C)cc(C(F)(F)F)c2C#N)c1
IC50 (second compound 0.0316 µM): > 10 µM
IC50 (second compound 0.1 µM): > 10 µM
IC50 (second compound 0.316 µM): > 10 µM
IC50 (second compound 1 µM): > 10 µM
IC50 (second compound 3.16 µM): > 10 µM
IC50 (second compound 10 µM): > 10 µM
viability, T/C [1]: 87.5%
viability, T/C [2]: 103%
viability, T/C [3]: 89.9%
viability, T/C [4]: 92.9%
viability, T/C [5]: 89.7%
viability, T/C [6]: 68.2%
viability, T/C [7]: 95.3%
viability, T/C [8]: 104%
viability, T/C [9]: 99%
viability, T/C [10]: 87.4%
viability, T/C [11]: 87.5%
viability, T/C [12]: 81.7%
viability, T/C [13]: 117%
viability, T/C [14]: 95.9%
viability, T/C [15]: 107%
viability, T/C [16]: 97.6%
viability, T/C [17]: 97.5%
viability, T/C [18]: 67.3%
viability, T/C [19]: 96.2%
viability, T/C [20]: 94.4%
viability, T/C [21]: 86%
viability, T/C [22]: 90.5%
viability, T/C [23]: 82.2%
viability, T/C [24]: 68%
viability, T/C [25]: 87.3%
viability, T/C [26]: 104%
viability, T/C [27]: 104%
viability, T/C [28]: 107%
viability, T/C [29]: 86.1%
viability, T/C [30]: 68%
viability, T/C [31]: 104%
viability, T/C [32]: 107%
viability, T/C [33]: 97.7%
viability, T/C [34]: 89.8%
viability, T/C [35]: 80.3%
viability, T/C [36]: 76.4%
